Values quoted from earlier work, collected in publication PMC4610172, “5-Arylaminouracil Derivatives as Potential Dual-Action Agents” (Acta Naturae, 2015).

Test system: MS-115 strain with multiple-drug resistance
Conditions: MS-115 resistant to isoniazid, rifampicin, streptomycin, ethambutol, pyrazinamide; cited from earlier work

CCCCOc1ccc(Nc2cn(C3C=CC(O)C3)c(=O)n(C3C=CC(O)C3)c2=O)cc1 (stereo not shown) [Compound 19]
Activity against MS-115 strain relative to sensitive H37Rv laboratory strain: higher activity against the MS-115 strain
